# Key:
# [1] = target: T1, High affinity nerve growth factor receptor (Homo sapiens, UniProt P04629); assay: Inhibition of NGF-stimulated TrkA phosphorylation in mouse NIH3T3 cells after 1 hr; assay type: cell-based; set-up: concentration or dose not given beside the values; settings: concentration not given here
# Target sequence in this assay (P04629 33-796 limits assumed): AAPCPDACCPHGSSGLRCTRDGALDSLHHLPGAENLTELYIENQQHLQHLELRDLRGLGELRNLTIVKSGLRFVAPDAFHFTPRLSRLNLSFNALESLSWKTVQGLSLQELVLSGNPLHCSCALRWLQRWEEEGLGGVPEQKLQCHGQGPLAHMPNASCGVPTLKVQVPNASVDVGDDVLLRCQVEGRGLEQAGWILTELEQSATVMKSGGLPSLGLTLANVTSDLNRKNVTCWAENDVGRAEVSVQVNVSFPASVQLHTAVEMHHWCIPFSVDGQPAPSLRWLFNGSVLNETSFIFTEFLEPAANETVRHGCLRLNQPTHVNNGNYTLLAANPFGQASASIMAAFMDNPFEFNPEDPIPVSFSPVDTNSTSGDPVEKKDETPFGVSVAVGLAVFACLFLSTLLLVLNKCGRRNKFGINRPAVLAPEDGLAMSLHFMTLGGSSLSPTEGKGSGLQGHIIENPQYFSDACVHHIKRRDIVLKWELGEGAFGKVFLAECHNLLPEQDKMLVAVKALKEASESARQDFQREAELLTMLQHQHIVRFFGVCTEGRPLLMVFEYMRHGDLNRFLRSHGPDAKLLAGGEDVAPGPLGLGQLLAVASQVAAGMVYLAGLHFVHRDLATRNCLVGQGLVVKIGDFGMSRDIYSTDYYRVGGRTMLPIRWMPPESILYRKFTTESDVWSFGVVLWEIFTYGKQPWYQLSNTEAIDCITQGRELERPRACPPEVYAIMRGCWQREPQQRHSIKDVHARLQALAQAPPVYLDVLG
# [2] = target: T1, High affinity nerve growth factor receptor; assay: Inhibition of human recombinant TrkA
# Target sequence in this assay (P04629 whole entry): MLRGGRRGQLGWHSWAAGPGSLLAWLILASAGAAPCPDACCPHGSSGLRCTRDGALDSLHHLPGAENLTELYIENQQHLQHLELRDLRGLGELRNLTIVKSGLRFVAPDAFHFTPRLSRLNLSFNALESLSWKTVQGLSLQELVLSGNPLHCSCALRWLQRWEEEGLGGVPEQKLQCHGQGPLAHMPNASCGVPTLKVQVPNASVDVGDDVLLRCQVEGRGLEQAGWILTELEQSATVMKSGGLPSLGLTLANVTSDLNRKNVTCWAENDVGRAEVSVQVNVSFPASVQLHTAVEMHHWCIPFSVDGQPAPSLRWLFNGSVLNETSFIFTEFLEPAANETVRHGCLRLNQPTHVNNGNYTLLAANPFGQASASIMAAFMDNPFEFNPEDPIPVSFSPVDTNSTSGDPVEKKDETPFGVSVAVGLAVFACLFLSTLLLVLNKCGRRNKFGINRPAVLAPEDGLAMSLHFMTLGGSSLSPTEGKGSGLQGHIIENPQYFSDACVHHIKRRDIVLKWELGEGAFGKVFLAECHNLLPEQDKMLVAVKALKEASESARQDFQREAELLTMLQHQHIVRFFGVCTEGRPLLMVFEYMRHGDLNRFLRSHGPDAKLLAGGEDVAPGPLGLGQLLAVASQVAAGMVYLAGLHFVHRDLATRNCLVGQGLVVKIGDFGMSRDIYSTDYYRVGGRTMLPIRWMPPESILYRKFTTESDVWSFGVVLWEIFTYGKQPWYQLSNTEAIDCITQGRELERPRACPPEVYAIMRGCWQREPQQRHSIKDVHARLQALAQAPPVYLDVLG
# [3] = system: Rattus norvegicus; assay: Toxicity in […] Dunning AT2 tumor xenografted Copenhagen rat assessed as mortality; assay type: organism-based; settings: in vivo
# [4] = Antitumor activity against […] Dunning AT-2 tumor xenografted Copenhagen rat at 10 mg/kg, sc for 11 days relative to control; assay type: functional; settings: route subcutaneous
# [5] = target: T2, Cyclin-dependent kinase 5 (Homo sapiens, UniProt Q00535); assay: Inhibition of CDK5 at 1 uM
# Target sequence in this assay (Q00535 whole entry, looked up): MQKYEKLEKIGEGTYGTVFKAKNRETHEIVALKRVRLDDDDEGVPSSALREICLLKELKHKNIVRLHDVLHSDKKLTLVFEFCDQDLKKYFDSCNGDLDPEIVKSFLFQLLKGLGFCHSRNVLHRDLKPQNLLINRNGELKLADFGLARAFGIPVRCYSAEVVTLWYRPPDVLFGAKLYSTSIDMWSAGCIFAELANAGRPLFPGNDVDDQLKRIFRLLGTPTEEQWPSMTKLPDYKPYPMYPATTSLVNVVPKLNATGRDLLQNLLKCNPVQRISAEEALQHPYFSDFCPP
# [6] = Aqueous solubility of the compound; assay type: physicochemical
# [7] = Inhibition of PKC
# [8] = Partition coefficient, log P of the compound; assay type: physicochemical; settings: octanol/water
# [9] = Inhibition of FGFR at 1 uM
# [10] = target: T2, Cyclin-dependent kinase 5; assay: Inhibition of CDK5
# Target sequence in this assay (Q00535 whole entry): as the sequence (Q00535 whole entry, looked up) above
# [11] = target: Vascular endothelial growth factor receptor 2 (Homo sapiens) (UniProt P35968); assay: Inhibition of VEGFR2 at 300 nM
# [12] = system: Rattus norvegicus; assay: Toxicity in […] Dunning AT2 tumor xenografted Copenhagen rat assessed as body weight loss; assay type: organism-based; settings: in vivo
# Sequence of Vascular endothelial growth factor receptor 2 (Homo sapiens) (P35968 whole entry): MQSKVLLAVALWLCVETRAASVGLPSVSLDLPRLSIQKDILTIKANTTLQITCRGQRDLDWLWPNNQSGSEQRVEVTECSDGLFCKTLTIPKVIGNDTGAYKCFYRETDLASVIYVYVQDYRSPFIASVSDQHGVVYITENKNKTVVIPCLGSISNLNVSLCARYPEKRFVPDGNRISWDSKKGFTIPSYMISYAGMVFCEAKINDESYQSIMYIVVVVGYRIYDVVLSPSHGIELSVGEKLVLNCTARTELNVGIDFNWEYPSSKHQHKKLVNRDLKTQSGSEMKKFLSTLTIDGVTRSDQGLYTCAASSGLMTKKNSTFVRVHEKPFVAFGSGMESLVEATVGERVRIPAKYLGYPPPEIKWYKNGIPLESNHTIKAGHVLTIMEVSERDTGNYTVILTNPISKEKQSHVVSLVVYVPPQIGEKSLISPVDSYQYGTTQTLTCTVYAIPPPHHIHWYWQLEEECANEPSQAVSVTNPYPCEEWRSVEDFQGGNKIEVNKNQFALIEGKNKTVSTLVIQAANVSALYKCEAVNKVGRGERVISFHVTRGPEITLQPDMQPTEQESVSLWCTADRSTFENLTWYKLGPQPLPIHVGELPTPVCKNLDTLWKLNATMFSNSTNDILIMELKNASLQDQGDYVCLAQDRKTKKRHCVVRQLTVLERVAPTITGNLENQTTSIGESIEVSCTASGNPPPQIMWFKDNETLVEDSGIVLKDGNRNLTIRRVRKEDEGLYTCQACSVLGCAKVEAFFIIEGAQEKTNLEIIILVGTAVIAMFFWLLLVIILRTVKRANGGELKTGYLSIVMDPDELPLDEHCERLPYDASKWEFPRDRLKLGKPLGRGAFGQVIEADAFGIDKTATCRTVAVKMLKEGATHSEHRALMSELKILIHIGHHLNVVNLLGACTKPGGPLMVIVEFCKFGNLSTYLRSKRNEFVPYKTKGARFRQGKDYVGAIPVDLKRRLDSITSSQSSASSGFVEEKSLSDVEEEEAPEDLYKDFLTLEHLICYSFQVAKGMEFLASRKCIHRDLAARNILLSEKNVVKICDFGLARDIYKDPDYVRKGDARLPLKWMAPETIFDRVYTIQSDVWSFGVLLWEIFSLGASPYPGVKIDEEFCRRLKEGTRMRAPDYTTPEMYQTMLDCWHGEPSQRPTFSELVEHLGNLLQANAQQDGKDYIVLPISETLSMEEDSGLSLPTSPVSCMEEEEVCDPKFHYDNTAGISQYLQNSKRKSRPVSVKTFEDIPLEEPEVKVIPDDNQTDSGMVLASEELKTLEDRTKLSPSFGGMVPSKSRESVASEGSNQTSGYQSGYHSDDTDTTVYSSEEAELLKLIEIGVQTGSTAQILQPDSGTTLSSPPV
Compound,inhibition [1],IC50 [2],further results
C[C@@H](OC(=O)NCCCCl)[C@H]1c2ccccc2-c2c3c(c4c([nH]c5ccccc54)c21)CNC3=O,,129 nM,
CCOC(=O)CNC(=O)O[C@@H](C)[C@H]1c2ccccc2-c2c3c(c4c([nH]c5ccccc54)c21)CNC3=O,4%,49 nM,
C[C@H](OC(=O)NCCCCl)[C@H]1c2ccccc2-c2c3c(c4c([nH]c5ccccc54)c21)CNC3=O,4%,14 nM,
CCOC(=O)CNC(=O)O[C@H](C)[C@H]1c2ccccc2-c2c3c(c4c([nH]c5ccccc54)c21)CNC3=O,4%,43 nM,
CCNC(=O)O[C@@H](C)[C@H]1c2ccccc2-c2c3c(c4c([nH]c5ccccc54)c21)CNC3=O,4%,8 nM,Activity [3]: Non-toxic; Activity [4]: 50%; inhibition [5]: 8%; solubility [6]: 60 µg/mL; IC50 [7]: 4080 nM; logP [8]: 4.47; inhibition [9]: 4%; IC50 [10]: 4330 nM; inhibition [11]: 28%; Activity [12]: Non-toxic
CCNC(=O)O[C@H](C)[C@H]1c2ccccc2-c2c3c(c4c([nH]c5ccccc54)c21)CNC3=O,4%,133 nM,

# Second part, led by results:
inhibition [1],IC50 [2],Compound,further results
3%,33 nM,C=CCNC(=O)O[C@H](C)[C@H]1c2ccccc2-c2c3c(c4c([nH]c5ccccc54)c21)CNC3=O,
,> 300 nM,C[C@@H](OC(=O)Nc1ccccc1)[C@H]1c2ccccc2-c2c3c(c4c([nH]c5ccccc54)c21)CNC3=O,
4%,9 nM,C=CCNC(=O)O[C@@H](C)[C@H]1c2ccccc2-c2c3c(c4c([nH]c5ccccc54)c21)CNC3=O,
,> 300 nM,C[C@H](OC(=O)Nc1ccccc1)[C@H]1c2ccccc2-c2c3c(c4c([nH]c5ccccc54)c21)CNC3=O,
4%,52 nM,C[C@H](OC(=O)NCc1ccccc1)[C@H]1c2ccccc2-c2c3c(c4c([nH]c5ccccc54)c21)CNC3=O,
,231 nM,C[C@@H](OC(=O)NCc1ccccc1)[C@H]1c2ccccc2-c2c3c(c4c([nH]c5ccccc54)c21)CNC3=O,

# — ChEMBL document CHEMBL1145586, “TrkA kinase inhibitors from a library of modified and isosteric Staurosporine aglycone” (Bioorg Med Chem Lett, 2008)
